From patent US10717734B2, “Indole and azaindole haloallylamine derivative inhibitors of lysyl oxidases and uses thereof” (PHARMAXIS LTD., priority 2016, dated 2020) come the findings set out here.

What all share (assay type): biochemical
One test concerns the target Human LOXL2 (Homo sapiens (Human), UniProt Q9Y4K0). Description: LOXL2 inhibition, peroxidase-coupled Amplex Red amine oxidase assay. Conditions: 30 min preincubation at 37° C., putrescine substrate. From the text:
(§1) Method to Determine the Ability of Compounds of the Invention to Inhibit LOX and LOXL1-4 from Different Sources
(§2) Lysyl oxidase (LOX) is an extracellular copper dependent enzyme which oxidizes peptidyl lysine and hydroxylysine residues in collagen and lysine residues in elastin to produce peptidyl alpha-aminoadipic-delta-semialdehydes. […] There are five LOX family members; these are LOX, LOXL1, LOXL2, LOXL3 and LOXL4. LOX and LOXL family members can be acquired as recombinant active proteins from commercial sources, or extracted from animal tissues like bovine aorta, tendons, pig skin; or prepared from cell cultures. The inhibitory effects of the compounds of the present invention were tested against the given LOX-LOXL preparation using a high-throughput coupled colorimetric method (Holt A. and Palcic M., A peroxidase-coupled continuous absorbance plate-reader assay for flavin monoamine oxidases, copper-containing amine oxidases and related enzymes. Nat. Protoc. 2006; 1: 2498-2505). The assay was developed using either 384 or 96 well format. Briefly, in a standard 384 well plate assay 25 μL of a dilution of any of the isoenzymes and orthologues in 1.2 M urea, 50 mM sodium borate buffer (pH 8.2) were added into each well in the presence of 1 μM mofegiline and 0.5 mM pargyline (to inhibit SSAO and MAO-B and MAO-A, respectively). Test compounds were dissolved in DMSO and tested in a Concentration Response Curve (CRC) with 11 data points, typically in the micromolar or nanomolar range after incubation with the enzyme for 30 min at 37° C. Twenty five μL of a reaction mixture containing twice the KM concentration of putrescine (Sigma Aldrich, e.g. 20 mM for LOX, or 10 mM for LOXL2 and LOXL3), 120 μM Amplex Red (Sigma Aldrich) and 1.5 U/mL horseradish peroxidase (Sigma Aldrich) prepared in 1.2 M urea, 50 mM sodium borate buffer (pH 8.2) were then added to the corresponding wells. The above volumes were doubled in the case of 96 wells plate. The fluorescence (RFU) was read every 2.5 min for 30 min at a range of temperatures from 37° to 45° C., excitation 565 nm and emission 590 (Optima; BMG labtech). The slope of the kinetics for each well was calculated using MARS data analysis software (BMG labtech) and this value was used to deduce the IC50 value (Dotmatics).

The next test concerns the target Bovine LOX (Bos taurus (Bovine), UniProt P33072). Description: LOX inhibition, peroxidase-coupled Amplex Red amine oxidase assay. Conditions: 30 min preincubation at 37° C., putrescine substrate.
Text: as §1
as §2, with “Test compounds were dissolved in DMSO and tested in a Concentration Response Curve (CRC) with 11 data points, typically in the micromolar or nanomolar range after incubation with the enzyme for 30 min at 37° C.” left out

Test [1] has as its target Human recombinant SSAO/VAP-1 (Homo sapiens (Human), UniProt Q16853). Description: Human recombinant SSAO/VAP-1 amine oxidase inhibition. Conditions: 30 min preincubation at 37° C., 600 μM benzylamine. The method, then: Method to Determine the Ability of Compounds of Formula I to Inhibit Human Recombinant SSAO/VAP-1
Human recombinant SSAO/VAP-1 amine oxidase activity was determined using the coupled colorimetric method as described for monoamine oxidase, copper-containing amine oxidases and related enzymes (Holt A. and Palcic M., A peroxidase-coupled continuous absorbance plate-reader assay for flavin monoamine oxidases, copper-containing amine oxidases and related enzymes. Nat Protoc 2006; 1: 2498-2505). Briefly, a cloned cDNA template corresponding to residues 34-763 of human SSAO/VAP-1, and incorporating a mouse Ig kappa (κ) signal sequence, N-terminal flag epitope tag and tobacco etch virus (TEV) cleavage site, was assembled in a mammalian expression vector (pLO-CMV) by Geneart AG. This vector containing human SSAO/VAP-1 residues was transfected into CHO-K1 glycosylation mutant cell line, Lec 8. A clone stably expressing human SSAO/VAP-1 was isolated and cultured in large scale. Active human SSAO/VAP-1 was purified and recovered using immunoaffinity chromatography. This was used as the source for SSAO/VAP-1 activity. A high-throughput colorimetric assay was developed using either 96 or 384 well format. Briefly, in a standard 96 well plate assay 50 μL of purified human SSAO/VAP-1 (0.25 μg/mL) in 0.1 M sodium phosphate buffer (pH 7.4) was added into each well. Test compounds were dissolved in DMSO and tested in a Concentration Response Curve (CRC) with 4-11 data points, typically in the micromolar or nanomolar range after incubation with human SSAO/VAP-1 for 30 min at 37° C. After 30 min incubation, 50 μL of the reaction mixture containing 600 μM benzylamine (Sigma Aldrich), 120 μM Amplex Red (Sigma Aldrich) and 1.5 U/mL horseradish peroxidase (Sigma Aldrich) prepared in 0.1 M sodium phosphate buffer (pH 7.4) were added to the corresponding well. The fluorescence unit (RFU) was read every 2.5 min for 30 min at 37° C. excitation 565 nm and emission 590 (Optima; BMG labtech). The slope of the kinetics for each well was calculated using MARS data analysis software (BMG labtech) and this value was used to deduce the IC50 value (Dotmatics).

The next test addresses Recombinant human MAO-B (Homo sapiens (Human), UniProt P27338). Description: Human recombinant MAO-B inhibition. Conditions: benzylamine 100 μM. The protocol: Method to Determine the Ability of Compounds of Formula I to Inhibit Human Recombinant MAO-B
The specificity of the compounds of this invention was tested by determining their ability to inhibit MAO-B activities in vitro. Recombinant human MAO-B (0.06 mg/mL; Sigma Aldrich) was used as source of MAO-B enzyme activities. The assay was performed in a similar way as for human SSAO/VAP-1 (Example 36) except, the substrate benzylamine was used at 100 μM.

Where a name gives a salt, the structure may show the parent alone.

Chain of Human recombinant SSAO/VAP-1 (Q16853 34-763): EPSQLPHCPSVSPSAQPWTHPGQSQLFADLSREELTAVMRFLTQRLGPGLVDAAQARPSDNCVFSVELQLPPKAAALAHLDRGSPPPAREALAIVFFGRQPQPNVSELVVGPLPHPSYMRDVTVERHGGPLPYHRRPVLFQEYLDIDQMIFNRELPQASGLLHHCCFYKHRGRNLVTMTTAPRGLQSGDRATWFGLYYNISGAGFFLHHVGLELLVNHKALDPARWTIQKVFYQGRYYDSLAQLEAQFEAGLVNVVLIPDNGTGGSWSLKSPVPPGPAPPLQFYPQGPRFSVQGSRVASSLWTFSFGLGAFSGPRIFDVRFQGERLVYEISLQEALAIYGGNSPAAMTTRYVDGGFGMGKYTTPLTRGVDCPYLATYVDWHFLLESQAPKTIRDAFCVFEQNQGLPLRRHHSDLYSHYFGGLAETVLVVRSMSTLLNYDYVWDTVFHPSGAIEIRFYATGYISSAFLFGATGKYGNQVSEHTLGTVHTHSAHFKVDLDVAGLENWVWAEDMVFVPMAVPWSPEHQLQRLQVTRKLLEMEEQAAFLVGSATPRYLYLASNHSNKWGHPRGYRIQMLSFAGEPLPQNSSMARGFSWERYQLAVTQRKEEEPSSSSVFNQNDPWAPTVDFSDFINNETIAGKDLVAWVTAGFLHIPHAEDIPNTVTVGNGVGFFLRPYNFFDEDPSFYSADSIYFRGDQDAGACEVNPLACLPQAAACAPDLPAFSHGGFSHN
Chain of Human LOXL2 (Q9Y4K0 26-774): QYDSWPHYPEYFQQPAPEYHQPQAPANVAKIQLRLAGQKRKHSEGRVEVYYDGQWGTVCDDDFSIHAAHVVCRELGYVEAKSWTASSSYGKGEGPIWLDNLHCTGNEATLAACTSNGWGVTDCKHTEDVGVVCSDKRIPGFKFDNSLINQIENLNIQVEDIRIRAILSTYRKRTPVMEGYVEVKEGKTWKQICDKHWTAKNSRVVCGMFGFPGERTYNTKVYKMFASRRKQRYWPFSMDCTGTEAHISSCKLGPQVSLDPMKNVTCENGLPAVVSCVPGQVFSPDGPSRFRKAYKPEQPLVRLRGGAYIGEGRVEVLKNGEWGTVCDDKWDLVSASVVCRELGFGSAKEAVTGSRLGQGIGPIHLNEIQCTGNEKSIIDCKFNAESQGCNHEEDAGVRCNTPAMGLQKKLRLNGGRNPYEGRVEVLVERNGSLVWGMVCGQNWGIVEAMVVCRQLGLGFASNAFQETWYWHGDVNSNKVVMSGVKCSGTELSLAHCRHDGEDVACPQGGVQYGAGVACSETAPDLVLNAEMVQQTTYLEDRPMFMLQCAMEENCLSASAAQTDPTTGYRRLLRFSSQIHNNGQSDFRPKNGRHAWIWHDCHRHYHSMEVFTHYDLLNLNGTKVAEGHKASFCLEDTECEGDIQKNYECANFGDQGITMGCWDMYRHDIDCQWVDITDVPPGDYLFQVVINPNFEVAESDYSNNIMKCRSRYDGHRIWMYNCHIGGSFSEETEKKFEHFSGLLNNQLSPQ
Chain of Recombinant human MAO-B (P27338 whole entry): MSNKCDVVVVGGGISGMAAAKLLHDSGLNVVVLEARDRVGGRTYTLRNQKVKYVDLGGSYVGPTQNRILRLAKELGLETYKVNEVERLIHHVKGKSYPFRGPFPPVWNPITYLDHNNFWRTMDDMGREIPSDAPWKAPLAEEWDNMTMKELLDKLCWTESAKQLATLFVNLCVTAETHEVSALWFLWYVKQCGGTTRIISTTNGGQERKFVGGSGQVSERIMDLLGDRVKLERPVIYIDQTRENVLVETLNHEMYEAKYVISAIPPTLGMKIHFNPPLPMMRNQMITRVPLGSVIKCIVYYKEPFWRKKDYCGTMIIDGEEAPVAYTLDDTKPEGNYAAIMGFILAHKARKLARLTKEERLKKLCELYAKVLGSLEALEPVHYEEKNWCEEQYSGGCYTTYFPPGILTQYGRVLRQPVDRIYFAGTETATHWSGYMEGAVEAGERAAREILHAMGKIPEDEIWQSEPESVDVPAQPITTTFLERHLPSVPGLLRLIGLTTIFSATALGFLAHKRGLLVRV
Chain of Bovine LOX (P33072 170-418): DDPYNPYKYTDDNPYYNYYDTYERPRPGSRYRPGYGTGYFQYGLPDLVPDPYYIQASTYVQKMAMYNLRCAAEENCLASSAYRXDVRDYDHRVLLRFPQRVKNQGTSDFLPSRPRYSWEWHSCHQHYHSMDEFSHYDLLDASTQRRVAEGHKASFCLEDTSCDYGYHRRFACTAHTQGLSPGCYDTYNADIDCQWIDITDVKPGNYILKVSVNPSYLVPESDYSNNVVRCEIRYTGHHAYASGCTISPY

By IC50 is commonly meant the concentration needed to halve the response being measured. With `Cc1c(Cc2ccc(S(=O)(=O)N(C)C)cc2)c2ncc(F)cc2n1C/C(F)=C/CN` [Compound 24, (Z)-4-((1-(4-amino-2-fluorobut-2-en-1-yl)-6-fluoro-2-methyl-1H-pyrrolo[3,2-b]pyridin-3-yl)methyl)-N,N-dimethylbenzenesulfonamide dihydrochloride], the half-maximal inhibitory concentration (IC50) was less than 300 nM against Human LOXL2, more than 300 nM at Bovine LOX, more than 3000 nM in test [1] and more than 3000 nM at Recombinant human MAO-B.

Take `CN(C)S(=O)(=O)c1ccc(Cc2c(C(C)(C)O)n(C/C(F)=C/CN)c3cccnc23)cc1` [Compound 25, (Z)-4-((1-(4-amino-2-fluorobut-2-en-1-yl)-2-(2-hydroxypropan-2-yl)-1H-pyrrolo[3,2-b]pyridin-3-yl)methyl)-N,N-dimethylbenzenesulfonamide dihydrochloride]: the IC50 against Human LOXL2 was less than 300 nM; against Bovine LOX it was more than 300 nM; in test [1] it was more than 3000 nM; at Recombinant human MAO-B it was more than 3000 nM.

Regarding `Cc1c(Cc2ccc(S(=O)(=O)N(C)C)cc2)c2ccccc2n1C/C(F)=C/CN` [Compound 26, (Z)-4-((1-(4-amino-2-fluorobut-2-en-1-yl)-2-methyl-1H-indol-3-yl)methyl)-N,N-dimethylbenzene-sulfonamide hydrochloride], the half-maximal inhibitory concentration (IC50) is less than 300 nM against Human LOXL2, more than 300 nM against Bovine LOX, more than 3000 nM in test [1] and more than 3000 nM on Recombinant human MAO-B.

As to `Cc1c(Cc2ccc(S(C)(=O)=O)nc2)c2nc(C3CC3)ccc2n1C/C(F)=C/CN` [Compound 27, (Z)-4-(5-cyclopropyl-2-methyl-3-((6-(methylsulfonyl)pyridin-3-yl)methyl)-1H-pyrrolo[3,2-b]pyridin-1-yl)-3-fluorobut-2-en-1-amine trihydrochloride], the half-maximal inhibitory concentration (IC50) at Human LOXL2 is less than 300 nM; at Bovine LOX, more than 300 nM; in test [1] it was more than 3000 nM; at Recombinant human MAO-B it was more than 3000 nM.

With `Cc1c(Cc2ccc(S(=O)(=O)N(C)C)cc2)c2nc(C(C)(C)O)ccc2n1C/C(F)=C/CN` [Compound 28, (Z)-4-((1-(4-amino-2-fluorobut-2-en-1-yl)-5-(2-hydroxypropan-2-yl)-2-methyl-1H-pyrrolo[3,2-b]pyridin-3-yl)methyl)-N,N-dimethylbenzenesulfonamide dihydrochloride], the IC50 on Human LOXL2 is less than 300 nM; against Bovine LOX, more than 300 nM; in test [1] it was more than 3000 nM; at Recombinant human MAO-B, more than 3000 nM.

`CC(O)c1c(Cc2ccc(S(=O)(=O)N(C)C)cc2)c2ncccc2n1C/C(F)=C/CN` (centres unmarked) [Compound 29, (Z)-4-((1-(4-amino-2-fluorobut-2-en-1-yl)-2-(1-hydroxyethyl)-1H-pyrrolo[3,2-b]pyridin-3-yl)methyl)-N,N-dimethylbenzenesulfonamide dihydrochloride]: the IC50 was less than 300 nM against Human LOXL2, more than 300 nM at Bovine LOX, more than 3000 nM in test [1] and more than 3000 nM at Recombinant human MAO-B.

As for `Cc1c(Cc2ccc(S(C)(=O)=O)nc2)c2nc(C(C)(F)F)ccc2n1C/C(F)=C/CN` [Compound 30, (Z)-4-(5-(1,1-difluoroethyl)-2-methyl-3-((6-(methylsulfonyl)pyridin-3-yl)methyl)-1H-pyrrolo[3,2-b]pyridin-1-yl)-3-fluorobut-2-en-1-amine trihydrochloride], the IC50 at Human LOXL2 is less than 300 nM; against Bovine LOX it was more than 300 nM; in test [1], more than 3000 nM; on Recombinant human MAO-B, more than 3000 nM.

`Cc1c(Cc2ccc(S(C)(=O)=O)nc2)c2nc(C(F)(F)F)ccc2n1C/C(F)=C/CN` [Compound 31, (Z)-3-fluoro-4-(2-methyl-3-((6-(methylsulfonyl)pyridin-3-yl)methyl)-5-(trifluoromethyl)-1H-pyrrolo[3,2-b]pyridin-1-yl)but-2-en-1-amine trihydrochloride]: the IC50 is less than 300 nM at Human LOXL2, more than 300 nM against Bovine LOX, more than 3000 nM in test [1] and more than 3000 nM at Recombinant human MAO-B.

For the compound `Cc1c(Cc2ccc(S(=O)(=O)N(C)C)cc2)c2cnccc2n1C/C(F)=C/CN` [Compound 32, (Z)-4-((1-(4-amino-2-fluorobut-2-en-1-yl)-2-methyl-1H-pyrrolo[3,2-c]pyridin-3-yl)methyl)-N,N-dimethylbenzenesulfonamide dihydrochloride], the concentration for half-maximal inhibition (IC50) was less than 300 nM at Human LOXL2, more than 300 nM on Bovine LOX, more than 3000 nM in test [1] and more than 3000 nM at Recombinant human MAO-B.

`CC(C)c1c(Cc2ccc(S(C)(=O)=O)cc2)c2ncccc2n1C/C(F)=C/CN` [Compound 33, (Z)-3-fluoro-4-(2-isopropyl-3-(4-(methylsulfonyl)benzyl)-1H-pyrrolo[3,2-b]pyridin-1-yl)but-2-en-1-amine dihydrochloride]: the half-inhibitory concentration (IC50) is less than 300 nM against Human LOXL2, more than 300 nM at Bovine LOX, more than 3000 nM in test [1] and more than 3000 nM at Recombinant human MAO-B.

For `Cc1cc(S(C)(=O)=O)ccc1Cc1c(C)n(C/C(F)=C/CN)c2cccnc12` [Compound 34, (Z)-3-fluoro-4-(2-methyl-3-(2-methyl-4-(methylsulfonyl)benzyl)-1H-pyrrolo[3,2-b]pyridin-1-yl)but-2-en-1-amine dihydrochloride], the 50% inhibitory concentration (IC50) at Human LOXL2 was less than 300 nM; against Bovine LOX, more than 300 nM; in test [1] it was more than 3000 nM; on Recombinant human MAO-B, more than 3000 nM.
